Measurements from paper PMC6405874, “Development of a novel short 12-meric papiliocin-derived peptide that is effective against Gram-negative sepsis” (Scientific Reports, 2019).
Converted amounts (≈) assume the structure as drawn. No end group written: not given here.

How the values were obtained:
[1] = tested on: MDRPA 2002 (MDR P. aeruginosa CCARM 2002); settings: 1% peptone, 2 × 10^6 CFU/mL, 16 h, 37 °C
Experimental: (§1) The antimicrobial activities of Pap12 peptides were tested against four standard Gram-negative bacteria (E. coli, Pseudomonas aeruginosa, Acinetobacter baumannii, and Salmonella typhimurium), three standard Gram-positive bacteria (Staphylococcus aureus, Bacillus subtilis, and Staphylococcus epidermidis), and five MDR bacteria (MDREC CCARM 1229, MDRPA CCARM 2002, MDRAB CCARM 12035, MDRST CCARM 8007, and MRSA CCARM 3126) using the microbroth dilution method. The relative antibacterial activities were compared based on geometric means of MICs (GM).
(§2) Escherichia coli (KCTC 1682), Pseudomonas aeruginosa (KCTC 2004), Acinetobacter baumannii (KCTC 2508), Salmonella typhimurium (KCTC 1926), Bacillus subtilis (KCTC 3068), Staphylococcus aureus (KCTC 1621), and Staphylococcus epidermidis (KCTC 1917) were purchased from the Korean Collection for Type Cultures, Korea Research Institute of Bioscience & Biotechnology (Taejon, Korea). Clinical isolates of MDR E. coli (MDREC; CCARM 1229), P. aeruginosa (MDRPA; CCARM 2002), A. baumannii (MDRAB; CCARM 12035), S. typhimurium (MDRST; CCARM 8007), and S. aureus (MDRSA; CCARM 3126) were supplied by the Culture Collection of Antibiotic-Resistant Microbe (CCARM) at Seoul Women’s University in Korea. The E. coli K1 strain RS218 (O18:K1:H7) was kindly provided by Dr. Jang-Won Yoon of Kangwon National University (Gangwon-do, Korea).
(§3) Peptides were treated with 2 × 10^6 CFU/mL bacterial suspensions in 1% peptone media for 16 h at 37 °C.

[2] = tested on: MDREC 1229 (MDR E. coli CCARM 1229); settings: 1% peptone, 2 × 10^6 CFU/mL, 16 h, 37 °C
Experimental: as §1, §2, §3

[3] = tested on: MDRAB 12035 (MDR A. baumannii CCARM 12035); settings: 1% peptone, 2 × 10^6 CFU/mL, 16 h, 37 °C
Experimental: as §1, §2, §3

[4] = tested on: A. baumannii (KCTC 2508); settings: 1% peptone, 2 × 10^6 CFU/mL, 16 h, 37 °C
Experimental: as §1, §2, §3

[5] = tested on: MRSA 3126 (CCARM 3126); settings: 1% peptone, 2 × 10^6 CFU/mL, 16 h, 37 °C
Experimental: as §1, §2, §3

[6] = tested on: MDRST 8007 (MDR S. typhimurium CCARM 8007); settings: 1% peptone, 2 × 10^6 CFU/mL, 16 h, 37 °C
Experimental: as §1, §2, §3

[7] = tested on: S. epidermidis (KCTC 1917); settings: 1% peptone, 2 × 10^6 CFU/mL, 16 h, 37 °C
Experimental: as §1, §2, §3

[8] = tested on: Gram-negative bacteria; settings: eight Gram-negative strains of Table 2
Experimental: as §1
(§4) The therapeutic index (TI) was calculated (Table 2) using HC10, the peptide concentration required to induce 10% hemolysis.
as §3

[9] = tested on: Gram-positive bacteria; settings: four Gram-positive strains of Table 2
Experimental: as §1, §4, §3

[10] = tested on: human red blood cells (hRBCs); test: Hemolysis of human red blood cells
Experimental: as §4
The toxicity of peptides to human red blood cells (hRBCs) was determined by measuring the peptide-induced release of haem, and percent hemolysis was calculated as described previously. The peptide-induced cytotoxicity of mouse RAW 264.7 macrophages, human keratinocyte HaCaT cells, and HEK-293 cells were determined by 3-(4,5-dimethylthiazol-2-yl)-2,5-diphenyltetrazolium bromide (MTT) assays as previously described.

[11] = tested on: mouse macrophage RAW 264.7 cells; test: MTT cytotoxicity; assay type: cell-based; settings: for cell survival: RAW 264.7, MTT
Excerpt: (§5) The toxicities of peptides against mammalian cells were checked by measuring the survival rate of mouse macrophage RAW 264.7 cells, human keratinocyte HaCaT cells, and HEK-293 human embryonic kidney epithelial (HEK-293) cells after treatment with different concentrations of peptides (Fig. 2B–D). […] Since melittin has higher hydrophobicity and a […] amphiphatic moment (µH) than those of Pap12 peptides, as listed in Table 1, its toxicity is much higher than those of Pap12 peptides.

[12] = tested on: E. coli (KCTC 1682); settings: 1% peptone, 2 × 10^6 CFU/mL, 16 h, 37 °C
Experimental: as §1, §2, §3

[13] = tested on: S. typhimurium (KCTC 1926); settings: 1% peptone, 2 × 10^6 CFU/mL, 16 h, 37 °C
Experimental: as §1, §2, §3

[14] = tested on: P. aeruginosa (KCTC 2004); settings: 1% peptone, 2 × 10^6 CFU/mL, 16 h, 37 °C
Experimental: as §1, §2, §3

[15] = tested on: S. aureus (KCTC 1621); settings: 1% peptone, 2 × 10^6 CFU/mL, 16 h, 37 °C
Experimental: as §1, §2, §3

[16] = tested on: B. subtilis (KCTC 3068); settings: 1% peptone, 2 × 10^6 CFU/mL, 16 h, 37 °C
Experimental: as §1, §2, §3

[17] = Survival of non-infected mice given peptide (acute toxicity); assay type: in vivo, BALB/c mice; settings: 10 mg/kg i.p., over 4 days, 10 mice
Experimental: To determine the in vivo survival rate, four groups were established with 10 BALB/c mice per group. For the control group, 10 mice were given an intraperitoneal (i.p.) injection with PBS. […] In the third group, 10 mice were i.p. injected with Pap12-6 (10 mg/kg). […] Survival was evaluated for 4 days (0, 6, 12, 18, 24, 30, 36, 48, 60, 72, 84, and 96 h).

[18] = tested on: human keratinocyte HaCaT cells; test: MTT cytotoxicity; assay type: cell-based; settings: 50 µM
Excerpt: as §5

[19] = tested on: HEK-293 human embryonic kidney epithelial cells; test: MTT cytotoxicity; assay type: cell-based; settings: HEK-293, MTT, 50 µM
Excerpt: as §5

Row | Compound | Minimal inhibitory concentration (MIC), MDRPA 2002 [1] [µM] | Minimal inhibitory concentration (MIC), MDREC 1229 [2] [µM] | Minimal inhibitory concentration (MIC), MDRAB 12035 [3] [µM] | Minimal inhibitory concentration (MIC), A. baumannii [4] [µM] | Minimal inhibitory concentration (MIC), MRSA 3126 [5] [µM] | Minimal inhibitory concentration (MIC), MDRST 8007 [6] [µM] | Minimal inhibitory concentration (MIC), S. epidermidis [7] [µM] | GM, geometric mean of MICs, Gram-negative bacteria [8] [µM] | GM, geometric mean of MICs, Gram-positive bacteria [9] [µM] | Minimal inhibitory concentration (MIC), E. coli [12] [µM] | Minimal inhibitory concentration (MIC), S. typhimurium [13] [µM] | Minimal inhibitory concentration (MIC), P. aeruginosa [14] [µM] | Minimal inhibitory concentration (MIC), S. aureus [15] [µM] | Minimal inhibitory concentration (MIC), B. subtilis [16] [µM] | HC10, peptide concentration resulting in 10% hemolysis of fresh human erythrocytes [10] [µM] | other results
1 | CC[C@H](C)[C@H](NC(=O)CN)C(=O)NCC(=O)N[C@@H](C)C(=O)N[C@H](C(=O)N[C@@H](CC(C)C)C(=O)N[C@@H](CCCCN)C(=O)N[C@H](C(=O)N[C@@H](CC(C)C)C(=O)N[C@H](C(=O)N[C@H](C(=O)NCC(=O)N[C@@H](CC(C)C)C(=O)N1CCC[C@H]1C(=O)N[C@@H](C)C(=O)N[C@@H](CC(C)C)C(=O)N[C@H](C(=O)N[C@@H](CO)C(=O)N[C@@H](Cc1c[nH]c2ccccc12)C(=O)N[C@H](C(=O)N[C@@H](CCCCN)C(=O)N[C@@H](CCCNC(=N)N)C(=O)N[C@@H](CCCCN)C(=O)N[C@@H](CCCNC(=N)N)C(=O)N[C@@H](CCC(N)=O)C(=O)N[C@@H](CCC(N)=O)C(N)=O)[C@@H](C)CC)[C@@H](C)CC)[C@@H](C)O)[C@@H](C)O)C(C)C)C(C)C [Melittin, reference compound] | 4 (≈ 11.4 µg/mL) | 8 (≈ 22.8 µg/mL) | 4 (≈ 11.4 µg/mL) | 8 (≈ 22.8 µg/mL) | 2 (≈ 5.69 µg/mL) | 8 (≈ 22.8 µg/mL) | 4 (≈ 11.4 µg/mL) | 6 | 3 | – | – | – | – | – | – | toxicity against hRBCs (in words) ([10]; hRBCs): highly toxic; cytotoxicity against mammalian cells (in words) ([11]; MTT, RAW 264.7, HaCaT and HEK-293 cells (Fig. 2B-D)): displayed cytotoxicity at very low concentrations
2 | RWKIFKKAAKKA-NH2 [Pap12-4] | 32 | 32 | 16 | 32 | 32 | 16 | 32 | 22 | 22 | 8 | 32 | 8 | 8 | 16 | 200 | –
3 | RWKIFKKAAKKG-NH2 [Pap12-2] | 16 | 32 | 16 | 32 | 16 | 16 | 32 | 18 | 20 | 8 | 16 | 8 | 16 | 16 | 200 | –
4 | RWKIFKKIEKVG-NH2 [Pap12-1] | 16 | 64 | 16 | 64 | 64 | 32 | 64 | 35 | 52 | 16 | 64 | 8 | 16 | 64 | 200 | –
5 | RWKIFKKVVKKA-NH2 [Pap12-5] | 16 | 16 | 8 | 8 | 16 | 16 | 16 | 14 | 14 | 8 | 32 | 8 | 8 | 16 | 200 | –
6 | RWKIFKKVVKKG-NH2 [Pap12-3] | 32 | 16 | 16 | 16 | 16 | 16 | 16 | 16 | 14 | 8 | 16 | 8 | 8 | 16 | 200 | –
7 | RWKIFKKVVKKW-NH2 [Pap12-6] | 8 | 8 | 4 | 4 | 8 | 8 | 8 | 6 | 7 | 4 | 8 | 4 | 4 | 8 | 100 | survival of non-infected mice (lack of acute toxicity) [17]: all mice survived; cytotoxicity (in words) [18]: no cytotoxicity; cytotoxicity (in words) [19]: no cytotoxicity; cell survival ([11]; 50 µM): 80%; cell survival ([11]; up to 25 µM): 100%
